From patent US9840474B2, “Pyrimidine compounds and use as anti-cervical cancer thereof” (SICHUAN UNIVERSITY, priority 2014, dated 2017)
Like-named read-outs stand apart in the source and are kept apart here.

Experiments:
Assay type in all cases: cell-based
HPV16 E6 mRNA = assay: Real-time PCR of HPV16 E6 mRNA expression in Caski cells; conditions: for effect on HPV E6 mRNA in Caski cells / inhibitory activity on E6 compared with positive control cidofovir / E6 One independent tests (inhibitory rate) / E6 Two independent tests (inhibitory rate): Caski cells; for E6 One independent tests (inhibitory rate) / E6 Two independent tests (inhibitory rate) / inhibition at 0.2 µg/mL: 48 h; for E6 One independent tests (inhibitory rate): test one; for E6 Two independent tests (inhibitory rate): test two; for inhibition at 0.2 µg/mL: Human papillomavirus 16, Ca-Ski
Text: (§1) In order to investigate in vitro effects of CH01 and CH02 against cervical cancer and HPV16 viruses, in the experiment, the cytotoxicity of above compounds, together with their effects on HPV16 E6 and E7 mRNA, is investigated by culture with human cervical cancer cells (HPV16 positive). Structures of test compounds are shown as follows:
(§2) [Experimental Method] • 1. Cytotoxicity: MTT method was used, and Reed-Muench method was used to calculate indexes median toxic concentration (TC50) and maximum non-toxic concentation (TC0). • 2. HPV16 E6 and E7 mRNA: The cell culture was treated for 48 h at maximum non-toxic concentration, and then the culture was terminated. Total RNA in cells was extracted, and effects of test samples on HPV16 E6 and E7 mRNA were measured using Real-time PCR method.
(§3) Effects of Samples on Expression of HPV16 E6 mRNA and HPV16 E7 mRNA in Caski Cells

[1] = system: human cervical carcinoma Caski cells; assay: MTT cytotoxicity / inhibition test of cervical cancer Caski cells; conditions: for OD: Caski cells, MTT; for IC50 value: cervical cancer Caski cells
Text: as §1, §2
[Experimental Result] • 1. Inhibition Test of Cervical Cancer Caski Cells

HPV16 E7 mRNA = assay: Real-time PCR of HPV16 E7 mRNA expression in Caski cells; conditions: for effect on HPV E7 mRNA in Caski cells / inhibitory activity on E7 compared with positive control cidofovir / E7 One independent tests (inhibitory rate) / E7 Two independent tests (inhibitory rate): Caski cells; for E7 One independent tests (inhibitory rate) / E7 Two independent tests (inhibitory rate) / inhibition at 0.2 µg/mL: 48 h; for E7 One independent tests (inhibitory rate): test one; for E7 Two independent tests (inhibitory rate): test two; for inhibition at 0.2 µg/mL: Human papillomavirus 16, Ca-Ski
Text: as §1, §2, §3

| Compound | effect on HPV E6 mRNA in Caski cells (HPV16 E6 mRNA) | inhibitory activity on E6 compared with positive control cidofovir (HPV16 E6 mRNA) | E6 One independent tests (inhibitory rate) (HPV16 E6 mRNA; 0.067 μg/ml) | E6 Two independent tests (inhibitory rate) (HPV16 E6 mRNA; 0.067 μg/ml) | E6 One independent tests (inhibitory rate) (HPV16 E6 mRNA; 0.2 μg/ml) | E6 Two independent tests (inhibitory rate) (HPV16 E6 mRNA; 0.2 μg/ml) | OD ([1]; 0.097656 μg/ml) | OD ([1]; 0.195313 μg/ml) | OD ([1]; 0.390625 μg/ml) | OD ([1]; 0.78125 μg/ml) | OD ([1]; 1.5625 μg/ml) | OD ([1]; 3.125 μg/ml) | OD ([1]; 6.25 μg/ml) | OD ([1]; 12.5 μg/ml) | OD ([1]; 25 μg/ml) | OD ([1]; 50 μg/ml) | OD ([1]; 100 μg/ml) | OD ([1]; 200 μg/ml) | IC50 value [1] | effect on HPV E7 mRNA in Caski cells (HPV16 E7 mRNA) | other results |
| --- | --- | --- | --- | --- | --- | --- | --- | --- | --- | --- | --- | --- | --- | --- | --- | --- | --- | --- | --- | --- | --- |
| 4-(2-methoxybenzylamino)-5-formaldoxime-6-chloropyrimidine [CH02] | showed inhibitory effects | better inhibitory activity than the positive control cidofovir | 0.461 | 0.481 | 0.599 | 0.549 | 0.8357 | 0.78 | 0.4733 | 0.3837 | 0.313 | 0.2943 | 0.2727 | 0.2743 | 0.2803 | 0.3087 | 0.3757 | 0.5557 | about 0.4 μg/ml | showed inhibitory effects | inhibitory activity on E7 compared with positive control cidofovir (HPV16 E7 mRNA): better inhibitory activity than the positive control cidofovir; E7 One independent tests (inhibitory rate) (HPV16 E7 mRNA; 0.067 μg/ml): 0.484; E7 Two independent tests (inhibitory rate) (HPV16 E7 mRNA; 0.067 μg/ml): 0.488; E7 One independent tests (inhibitory rate) (HPV16 E7 mRNA; 0.2 μg/ml): 0.516; E7 Two independent tests (inhibitory rate) (HPV16 E7 mRNA; 0.2 μg/ml): 0.526 |
| 4-(4-tert-butylbenzylamino)-5-formaldoxime-6-chloropyrimidine [CH01] | showed inhibitory effects | better inhibitory activity than the positive control cidofovir | 0.489 | 0.494 | 0.577 | 0.553 | 0.8367 | 0.7847 | 0.6353 | 0.5667 | 0.488 | 0.4667 | 0.4117 | 0.3033 | 0.283 | 0.28 | 0.2967 | 0.4373 | about 1.5 μg/ml | showed inhibitory effects | inhibitory activity on E7 compared with positive control cidofovir (HPV16 E7 mRNA): better inhibitory activity than the positive control cidofovir; E7 One independent tests (inhibitory rate) (HPV16 E7 mRNA; 0.067 μg/ml): 0.488; E7 Two independent tests (inhibitory rate) (HPV16 E7 mRNA; 0.067 μg/ml): 0.455; E7 One independent tests (inhibitory rate) (HPV16 E7 mRNA; 0.2 μg/ml): 0.484; E7 Two independent tests (inhibitory rate) (HPV16 E7 mRNA; 0.2 μg/ml): 0.449 |
| Nc1ccn(C[C@@H](CO)OCP(=O)(O)O)c(=O)n1 [cidofovir, reference compound] |  |  |  |  |  |  |  |  |  |  |  |  |  |  |  |  |  |  |  |  | inhibition at 0.2 µg/mL (HPV16 E6 mRNA; read-out: E6 One independent tests (inhibitory rate)): 32.6%; inhibition at 0.2 µg/mL (HPV16 E6 mRNA; read-out: E6 Two independent tests (inhibitory rate)): 33.6%; inhibition at 0.2 µg/mL (HPV16 E7 mRNA; read-out: E7 One independent tests (inhibitory rate)): 32.1%; inhibition at 0.2 µg/mL (HPV16 E7 mRNA; read-out: E7 Two independent tests (inhibitory rate)): 32.4% |
